{"source": "PubChem BioAssay AID1259409", "about": "(Chemical Carcinogenesis Research Information System (CCRIS), 2018)", "origin": "cited, not measured here", "tested_on": "rodent chemically induced tumor inhibition, incidence and multiplicity", "assay": "CCRIS tumor inhibitor studies", "conditions": "Promoter: NONE USED", "data": [{"smiles": "CC(C)(C)c1cc(O)ccc1O", "values": [{"measurement": "tumour outcome (control, treated, inhibition, significance)", "setting": "Carcinogen: 7,12-DIMETHYLBENZ[A]ANTHRACENE, 57-97-6, Dose [Inhibitor]: 0.8% IN POWDERED DIET BEGINNING 1 WK POST CARCINOGEN DOSE FOR 51 WK (STUDY DURATION: 52 WK), Route [Inhibitor]: ORAL, Species: RAT, Strain/Sex: SPRAGUE-DAWLEY/FEMALE, Target Tissue: Type of Lesion: EAR DUCT: BENIGN TUMOR, Dose [Carcinogen]: 2.5 MG/100 G BW IN 0.5 ML SESAME OIL ONCE", "value": "7/19 (37%), 5/16 (31%), 15%, not calculated"}, {"measurement": "tumour outcome (control, treated, inhibition, significance)", "setting": "Carcinogen: 7,12-DIMETHYLBENZ[A]ANTHRACENE, 57-97-6, Dose [Inhibitor]: 0.8% IN POWDERED DIET BEGINNING 1 WK POST CARCINOGEN DOSE FOR 51 WK (STUDY DURATION: 52 WK), Route [Inhibitor]: ORAL, Species: RAT, Strain/Sex: SPRAGUE-DAWLEY/FEMALE, Target Tissue: Type of Lesion: MAMMARY GLAND: CARCINOMA, Dose [Carcinogen]: 2.5 MG/100 G BW IN 0.5 ML SESAME OIL ONCE", "value": "6/19 (32%), 5/16 (31%), 0.9%, not calculated"}, {"measurement": "tumour outcome (control, treated, inhibition, significance)", "setting": "Carcinogen: 7,12-DIMETHYLBENZ[A]ANTHRACENE, 57-97-6, Dose [Inhibitor]: 0.8% IN POWDERED DIET BEGINNING 1 WK POST CARCINOGEN DOSE FOR 51 WK (STUDY DURATION: 52 WK), Route [Inhibitor]: ORAL, Species: RAT, Strain/Sex: SPRAGUE-DAWLEY/FEMALE, Target Tissue: Type of Lesion: MAMMARY GLAND: FIBROADENOMA, Dose [Carcinogen]: 2.5 MG/100 G BW IN 0.5 ML SESAME OIL ONCE", "value": "15/19 (79%), 4/16 (24%), 70%, p<0.001"}, {"measurement": "tumour outcome (control, treated, inhibition, significance)", "setting": "Carcinogen: BENZO[A]PYRENE, 50-32-8, Dose [Inhibitor]: 0.03 MMOL/G OF DIET DAILY STARTING 8 D BEFORE AND CONTINUING THROUGH 3 D AFTER CARCINOGEN TREATMENT FOLLOWED BY OBSERVAT, Route [Inhibitor]: ORAL, Species: MOUSE, Strain/Sex: ICR/FEMALE, Target Tissue: Type of Lesion: FORESTOMACH: NEOPLASM, Dose [Carcinogen]: 1 MG IN 0.2 ML CORN OIL 2/WK FOR 4 WK", "value": "94%, 85%, 10%, not significant"}, {"measurement": "tumour outcome (control, treated, inhibition, significance)", "setting": "Carcinogen: N-METHYL-N'-NITRO-N-NITROSOGUANIDINE, 70-25-7, N-ETHYL-N-HYDROXYETHYLNITROSAMINE, 13147-25-6, N-METHYLBENZYLNITROSAM, Carcinogen: N-METHYL-N'-NITRO-N-NITROSOGUANIDINE, 70-25-7, N-ETHYL-N-HYDROXYETHYLNITROSAMINE, 13147-25-6, N-METHYLBENZYLNITROSAM, Dose [Inhibitor]: 0, 1% IN DIET FOR 36 WK (STUDY DURATION: 36 WK), Route [Inhibitor]: ORAL, Species: RAT, Strain/Sex: F344/MALE, Target Tissue: Type of Lesion: COLON: CARCINOMA, Dose [Carcinogen]: 100 MG/KG BW MNNG ONCE, 750 MG/KG BW EHEN ONCE, 0.5 MG/KG BW MBN TWICE, 40 MG/KG BW DMH 4 TIMES, 0.05% DBN IN DRINKING W", "value": "10/18 (56%), 4/18 (22%), 61%, not calculated"}, {"measurement": "tumour outcome (control, treated, inhibition, significance)", "setting": "Carcinogen: N-METHYL-N'-NITRO-N-NITROSOGUANIDINE, 70-25-7, N-ETHYL-N-HYDROXYETHYLNITROSAMINE, 13147-25-6, N-METHYLBENZYLNITROSAM, Carcinogen: N-METHYL-N'-NITRO-N-NITROSOGUANIDINE, 70-25-7, N-ETHYL-N-HYDROXYETHYLNITROSAMINE, 13147-25-6, N-METHYLBENZYLNITROSAM, Dose [Inhibitor]: 0, 1% IN DIET FOR 36 WK (STUDY DURATION: 36 WK), Route [Inhibitor]: ORAL, Species: RAT, Strain/Sex: F344/MALE, Target Tissue: Type of Lesion: ESOPHAGUS: PAPILLOMA, Dose [Carcinogen]: 100 MG/KG BW MNNG ONCE, 750 MG/KG BW EHEN ONCE, 0.5 MG/KG BW MBN TWICE, 40 MG/KG BW DMH 4 TIMES, 0.05% DBN IN DRINKING W", "value": "3/18 (17%), 15/18 (83%), -388%, p<0.001"}, {"measurement": "tumour outcome (control, treated, inhibition, significance)", "setting": "Carcinogen: N-METHYL-N'-NITRO-N-NITROSOGUANIDINE, 70-25-7, N-ETHYL-N-HYDROXYETHYLNITROSAMINE, 13147-25-6, N-METHYLBENZYLNITROSAM, Carcinogen: N-METHYL-N'-NITRO-N-NITROSOGUANIDINE, 70-25-7, N-ETHYL-N-HYDROXYETHYLNITROSAMINE, 13147-25-6, N-METHYLBENZYLNITROSAM, Dose [Inhibitor]: 0, 1% IN DIET FOR 36 WK (STUDY DURATION: 36 WK), Route [Inhibitor]: ORAL, Species: RAT, Strain/Sex: F344/MALE, Target Tissue: Type of Lesion: FORESTOMACH: PAPILLOMA, Dose [Carcinogen]: 100 MG/KG BW MNNG ONCE, 750 MG/KG BW EHEN ONCE, 0.5 MG/KG BW MBN TWICE, 40 MG/KG BW DMH 4 TIMES, 0.05% DBN IN DRINKING W", "value": "6/18 (33%), 15/18 (83%), -151%, p<0.01"}, {"measurement": "tumour outcome (control, treated, inhibition, significance)", "setting": "Carcinogen: N-METHYL-N'-NITRO-N-NITROSOGUANIDINE, 70-25-7, N-ETHYL-N-HYDROXYETHYLNITROSAMINE, 13147-25-6, N-METHYLBENZYLNITROSAM, Carcinogen: N-METHYL-N'-NITRO-N-NITROSOGUANIDINE, 70-25-7, N-ETHYL-N-HYDROXYETHYLNITROSAMINE, 13147-25-6, N-METHYLBENZYLNITROSAM, Dose [Inhibitor]: 0, 1% IN DIET FOR 36 WK (STUDY DURATION: 36 WK), Route [Inhibitor]: ORAL, Species: RAT, Strain/Sex: F344/MALE, Target Tissue: Type of Lesion: KIDNEY: RENAL CELL TUMOR, Dose [Carcinogen]: 100 MG/KG BW MNNG ONCE, 750 MG/KG BW EHEN ONCE, 0.5 MG/KG BW MBN TWICE, 40 MG/KG BW DMH 4 TIMES, 0.05% DBN IN DRINKING W", "value": "8/18 (44%), 5/18 (28%), 36%, not calculated"}]}, {"smiles": "C=CCSC", "values": [{"measurement": "tumour outcome (control, treated, inhibition, significance)", "setting": "Carcinogen: 7,12-DIMETHYLBENZ[A]ANTHRACENE, 57-97-6, Dose [Inhibitor]: 0, 1.8 MMOL/KG BW IN CORN OIL 96, 48 AND 24 HR PRIOR TO CARCINOGEN TREATMENT (STUDY DURATION: 25 WK), Route [Inhibitor]: GAVAGE, Species: RAT, Strain/Sex: SPRAGUE-DAWLEY/FEMALE, Target Tissue: Type of Lesion: MAMMARY GLAND: ADENOCARCINOMA, Dose [Carcinogen]: 10 MG ONCE", "value": "92%, 72%, 22%, p<0.05"}]}, {"smiles": "CC/C=C\\C/C=C\\C/C=C\\C/C=C\\C/C=C\\CCCC(=O)O", "values": [{"measurement": "tumour outcome (control, treated, inhibition, significance)", "setting": "Carcinogen: 7,12-DIMETHYLBENZ[A]ANTHRACENE, 57-97-6, Dose [Inhibitor]: 0, 0.5 ML 2/WK FOR 19 WK BEGINNING 1 WK POST CARCINOGEN DOSE ADMINISTERED TO RATS FED HIGH-FAT (20% CORN OIL) DIETS (STU, Route [Inhibitor]: GAVAGE, Species: RAT, Strain/Sex: SPRAGUE-DAWLEY/FEMALE, Target Tissue: Type of Lesion: MAMMARY GLAND: ADENOCARCINOMA, Dose [Carcinogen]: 5 MG ONCE AT 50 D OF AGE", "value": "24/30 (80%), 10/24 (42%), 48%, p<0.05"}, {"measurement": "tumour outcome (control, treated, inhibition, significance)", "setting": "Carcinogen: AZOXYMETHANE, 25843-45-2, Dose [Inhibitor]: 4.7% (VOL/VOL) IN 5% FAT DIET CONTAINING 0.3% LINOLEIC ACID FOR DURATION OF STUDY (STUDY DURATION: 26 WK), Route [Inhibitor]: ORAL, Species: RAT, Strain/Sex: DONRYU/MALE, Target Tissue: Type of Lesion: COLON: ADENOCARCINOMA, Dose [Carcinogen]: 7.4 MG/KG BW IN 0.9% SALINE SOLUTION 1/WK FOR FIRST 11 WK", "value": "20/29 (69%), 10/30 (33%), 52%, p<0.01"}]}, {"smiles": "CCCCNC(=O)/C=C(C)/C=C/C=C(C)/C=C/C1=C(C)CCCC1(C)C", "values": [{"measurement": "tumour outcome (control, treated, inhibition, significance)", "setting": "Carcinogen: N-BUTYL-N-(4-HYDROXYBUTYL)NITROSAMINE, 3817-11-6, Dose [Inhibitor]: 1.5 MMOL/KG DIET DAILY FOR 133 D STARTING ONE WK AFTER THE FINAL CARCINOGEN DOSE (STUDY DURATION: 190 D), Route [Inhibitor]: ORAL, Species: MOUSE, Strain/Sex: BDF/MALE, Target Tissue: Type of Lesion: URINARY BLADDER: TRANSITIONAL CELL CARCINOMA, Dose [Carcinogen]: 7.5 MG 1/WK FOR 8 WK", "value": "21/100 (21%), 19/100 (19%), 10%, not significant"}, {"measurement": "tumour outcome (control, treated, inhibition, significance)", "setting": "Carcinogen: N-BUTYL-N-(4-HYDROXYBUTYL)NITROSAMINE, 3817-11-6, Dose [Inhibitor]: 1.5 MMOL/KG IN DIET FOR 133 D STARTING 1 WK AFTER THE LAST CARCINOGEN DOSE (STUDY DURATION: 190 D), Route [Inhibitor]: ORAL, Species: MOUSE, Strain/Sex: DBF1/MALE, Target Tissue: Type of Lesion: URINARY BLADDER: TRANSITIONAL CELL CARCINOMA, Dose [Carcinogen]: 7.5 MG 1/WK FOR 8 WK", "value": "21/100 (21%), 19/100 (19%), 10%, not significant"}]}]}
